# Results as given in the NIST ThermoML archive (doi:10.1016/j.tca.2014.11.009).
# ± gives the expanded uncertainty stated by the source.
# How the values were obtained:
# [1] = 100 kPa, Liquid; for speed of sound: Frequency=3 MHz, Sing-around technique in a fixed-path interferometer; for mass density: Vibrating tube method
# [2] = xn = mol fraction of the nth substance listed; conditions: 100 kPa, Liquid, x2 = 0; for speed of sound: Frequency=3 MHz, Sing-around technique in a fixed-path interferometer; for mass density: Vibrating tube method
SMILES,speed of sound ([1]; 283.15 K) [m/s],mass density ([1]; 283.15 K) [kg/m3],speed of sound ([1]; 293.15 K) [m/s],mass density ([1]; 293.15 K) [kg/m3],speed of sound ([1]; 303.15 K) [m/s],mass density ([1]; 303.15 K) [kg/m3],speed of sound ([1]; 313.15 K) [m/s],mass density ([1]; 313.15 K) [kg/m3],speed of sound ([2]; 283.15 K) [m/s],mass density ([2]; 283.15 K) [kg/m3],speed of sound ([2]; 293.15 K) [m/s],mass density ([2]; 293.15 K) [kg/m3],speed of sound ([2]; 303.15 K) [m/s],mass density ([2]; 303.15 K) [kg/m3],speed of sound ([2]; 313.15 K) [m/s],mass density ([2]; 313.15 K) [kg/m3]
O=Cc1ccco1 [2-furaldehyde],1495.4 ± 1.6,1169.93 ± 0.37,1458.8 ± 1.6,1159.33 ± 0.36,1422.5 ± 1.6,1148.69 ± 0.35,1386.5 ± 1.6,1138.01 ± 0.34,–,–,–,–,–,–,–,–
CCCCO [butan-1-ol],1291.4 ± 1.6,817.21 ± 0.24,1257.5 ± 1.6,809.65 ± 0.24,1223.6 ± 1.6,802 ± 0.24,1190.2 ± 1.6,794.21 ± 0.24,–,–,–,–,–,–,–,–
CCCCO [butan-1-ol] + O=Cc1ccco1,–,–,–,–,–,–,–,–,1291.4 ± 1.6,817.21 ± 0.24,1257.5 ± 1.6,809.65 ± 0.24,1223.6 ± 1.6,802 ± 0.24,1190.2 ± 1.6,794.21 ± 0.24
CCC(C)O (stereo unspecified) [butan-2-ol],1268.4 ± 1.6,815.39 ± 0.24,1232.4 ± 1.6,807.34 ± 0.24,1196.1 ± 1.6,798.99 ± 0.24,1159.5 ± 1.6,790.28 ± 0.24,–,–,–,–,–,–,–,–
CCC(C)O (stereo unspecified) [butan-2-ol] + O=Cc1ccco1,–,–,–,–,–,–,–,–,1268.4 ± 1.6,815.39 ± 0.24,1232.4 ± 1.6,807.34 ± 0.24,1196.1 ± 1.6,798.99 ± 0.24,1159.5 ± 1.6,790.28 ± 0.24
CCO [ethanol],1197.3 ± 1.6,798.51 ± 0.24,1162.5 ± 1.6,789.99 ± 0.24,1128.3 ± 1.6,781.38 ± 0.24,1094.6 ± 1.6,772.64 ± 0.24,–,–,–,–,–,–,–,–
CCO [ethanol] + O=Cc1ccco1,–,–,–,–,–,–,–,–,1197.3 ± 1.6,798.51 ± 0.24,1162.5 ± 1.6,789.99 ± 0.24,1128.3 ± 1.6,781.38 ± 0.24,1094.6 ± 1.6,772.64 ± 0.24
